Where “and” joins values, the source holds several entries; their conditions need not be identical. Equal entries are not always repeated. Each block holds one molecule with its values, some of them ahead of it. Bridge positions count the residues as written; N and C are the ends. Square brackets hold non-standard residues; d marks the D form. Peptide text beside a SMILES is read from it. * marks the point of attachment. Hydrocinnamoyl = O=C(CCc1ccccc1)*; dCha = N[C@H](CC1CCCCC1)C(=O)O; Orn = NCCC[C@H](N)C(=O)O
Legend:
[1] = Serum stability, incubation at 37 °C; details: mouse serum, 1 µg/ml, up to 60 min
Experimental: (§1) Plasma and serum stability was determined by incubation experiments. For plasma stability, whole blood was collected via cardiac puncture from anaesthetized wild-type mice in tubes containing EDTA, and plasma was extracted by centrifuging blood for 15 min at 1500 × g at 4 °C. […] Samples (n = 4) were quenched at regular intervals of 5 min, 10 min, 15 min, 30 min and 60 min by stopping the reaction with the addition of ice cold acetonitrile, and processed as described earlier for quantitative determination of unchanged analytes. For serum stability, whole blood was collected via cardiac puncture from anaesthetized wild-type mice in tubes and kept on ice until completely clotted. Serum was collected by centrifuging clotted blood for 15 min at 1500 × g at 4 °C. […] Briefly, on the day of analysis, samples were deproteinized with 1:3 ice cold acetonitrile and spiked with 10 µl of 100 ng/ml internal standard. Samples were vortexed, centrifuged and supernatants were dried by vacuum concentration at room temperature. Dried samples were reconstituted in 50 µl of 75% methanol and analysed using LC-MS/MS. The stability the C5aR1 antagonists were expressed as a percentage of the concentration detected at different time points in comparison to the concentration detected immediately following addition of antagonists i.e. at t = 0 min.

[2] = Intravenous pharmacokinetics in mice (plasma, brain, spinal cord; LC-MS/MS, non-compartmental analysis); details: for MRT inf: MRT 0-inf_obs
Experimental: (§2) The validity of the developed bioanalytical LC-MS/MS method was assessed by quantitative determination of C5aR1 antagonist levels in mice plasma and tissue following i.v. drug administration. All experimental procedures and animal care were performed following approval from the University of Queensland Animal Care and Use Committee and conducted in accordance with the National Health and Medical Research Council of Australia policies and guidelines for the care and use of animals for scientific purposes. C57BL/6 J mice (males, 10–12 weeks old) were purchased from Animal Resources Centre, Western Australia. An i.v. dose of 1 mg/kg was selected based upon previous pharmacokinetic studies in rat and in vivo efficacy studies in mice[6],[28]. After overnight fasting, mice (n = 4 per time point) were anaesthetized with zolazapam (50 mg/kg) and xylazine (12 mg/kg) via i.p. injection. […] Blood samples were collected via cardiac puncture at 2.5 min, 5 min, 10 min, 15 min, 30 min, 45 min, 60 min and 90 minutes in tubes containing EDTA followed by plasma separation by centrifugation at 1500 × g at 4 °C. Plasma samples were stored at −80 °C for further processing and analysis. Mice were immediately perfused transcardially with sterile saline to remove circulating drug from the blood vasculature. Whole brain and spinal cord samples were obtained and homogenized in an equal weight-volume of milliQ water. […] Pharmacokinetics data analysis was performed using Pharsight WINNONLIN software (version 6.4) by a non-compartmental analysis method to obtain various pharmacokinetic parameters.

[3] = Gastric environment stability (gastric lavage fluid and gastric homogenate); details: 1 µg/ml, 37 °C, up to 60 min
Experimental: The gastric stability of analytes was performed using gastric contents of wild-type mice with free access to food and water overnight (i.e. modelling physiological conditions). […] The stomach was clamped and removed from the abdominal cavity, and the stomach cavity was repeatedly lavaged with sterile saline (5 ml in total) and the lavage fluid collected and combined. The stomach tissue was then homogenized with an equal volume of milliQ water. Lavage fluid and stomach homogenate were centrifuged (400 × g, 30 min at 4 °C) and the supernatant was collected and stored on ice. A solution of C5aR1 antagonist (1 µg/ml) were incubated at 37 °C for up to 60 minutes in gastric lavage fluid and gastric homogenate supernatant, and samples (n = 4) were quenched at regular time intervals by the addition of ice-cold acetonitrile. Samples were processed as described earlier for the quantitative determination of unchanged analytes along with an internal standard.

[4] = Intestinal environment stability (intestinal washing and intestinal homogenate); details: 1 µg/ml, 37 °C, up to 60 min
Experimental: Likewise gastric environment stability, intestinal stability of analytes was performed using intestinal contents of wild-type mice with free access to food and water overnight. Mice were anaesthetized and euthanized by cervical dislocation. The small intestine was clamped and removed from the abdominal cavity. The intestine was repeatedly lavaged with sterile saline (5 ml in total) and intestinal washings were collected and combined. The intestine was also homogenized with an equal volume of milliQ water. Intestinal lavage and intestinal homogenates were centrifuged (400 × g, 30 min at 4 °C) and the supernatant was collected and stored on ice. A solution of C5aR1 antagonist (1 µg/ml) was incubated at 37 °C for up to 60 minutes in intestinal lavage and intestinal homogenate supernatants, and samples (n = 4) were collected at regular time intervals by the addition of ice-cold acetonitrile. Samples were processed as described earlier for quantitative determination of unchanged analytes along with internal standard.

[5] = Plasma stability, incubation at 37 °C; details: mouse plasma, 1 µg/ml, up to 60 min
Experimental: as §1

[6] = in vivo; details: male, C57BL/6 J, mouse, iv, 1 mg/kg
Experimental: as §2

[7] = brain, single i.v. 1 mg/kg, mice
[8] = male, C57BL/6 J, mouse, brain, iv, 1 mg/kg, single i.v. 1 mg/kg, mice
[9] = male, C57BL/6 J, mouse, plasma, iv, 1 mg/kg
[10] = male, C57BL/6 J, mouse, plasma, iv, 1 mg/kg, single i.v. 1 mg/kg, mice
[11] = male, C57BL/6 J, mouse, spinal cord, iv, 1 mg/kg, single i.v. 1 mg/kg, mice
[12] = spinal cord, single i.v. 1 mg/kg, mice

stability in serum (percentage of concentration detected vs t = 0 min) [1]: 91.4 ± 1.4%
AUC 0-inf_obs [2, 7]: 12.18 µg·min/g
Cl_obs [2, 7]: 2.46 g/min
Vss_obs [2, 7]: 553.84 g
Vz_obs [2, 7]: 572.84 g
AUC(0-t) ([2]; brain, t = 90 min, single i.v. 1 mg/kg, mice): 4.18 µg·min/g
Cmax [2, 8]: 108 ng/g
MRT inf [2, 8]: 3.75 h
half-life ([2]; male, C57BL/6 J, mouse, brain, iv, 1 mg/kg, t1/2, brain, single i.v. 1 mg/kg, mice): 2.69 h
AUC(0-inf) [2, 9]: 5810 ng·h/mL
AUC(0-t) [2, 9]: 5800 ng·h/mL
clearance [2, 9]: 0.086 mL/min
Cmax [2, 10]: 29000 ng/mL
MRT inf [2, 10]: 0.15 h
Vd ([2]; male, C57BL/6 J, mouse, plasma, iv, 1 mg/kg, Vss_obs, plasma, single i.v. 1 mg/kg, mice): 0.00079 L
Vd ([2]; male, C57BL/6 J, mouse, plasma, iv, 1 mg/kg, Vz_obs, single i.v. 1 mg/kg, mice): 0.00132 L
half-life ([2]; male, C57BL/6 J, mouse, plasma, iv, 1 mg/kg, t1/2, plasma, single i.v. 1 mg/kg, mice): 0.17 h
Cmax [2, 11]: 213 ng/g
MRT inf [2, 11]: 2.49 h
half-life ([2]; male, C57BL/6 J, mouse, spinal cord, iv, 1 mg/kg, t1/2, spinal cord, single i.v. 1 mg/kg, mice): 1.78 h
AUC 0-inf_obs [2, 12]: 17.42 µg·min/g
Cl_obs [2, 12]: 1.722 g/min
Vss_obs [2, 12]: 257.98 g
Vz_obs [2, 12]: 265.65 g
AUC(0-t) ([2]; spinal cord, t = 90 min, single i.v. 1 mg/kg, mice): 7.95 µg·min/g
stability in gastric homogenates (unchanged form, % of t = 0 min) ([3]; mouse gastric homogenates): 6.7 ± 4.2%
stability in gastric lavage (unchanged form, % of t = 0 min) ([3]; mouse gastric lavage fluid): < 25% and 23.3 ± 1.7%
stability in intestinal homogenates (unchanged form) ([4]; mouse intestinal homogenates): greater than 35%
stability in intestinal washing (unchanged form) ([4]; mouse intestinal washing): more than 85%
stability in plasma (percentage of concentration detected vs t = 0 min) [5]: 91.4 ± 3.1%
SMILES: N=C(N)NCCC[C@@H]1NC(=O)[C@H](Cc2c[nH]c3ccccc23)NC(=O)[C@@H](CC2CCCCC2)NC(=O)[C@@H]2CCCN2C(=O)[C@@H](NC(=O)CCc2ccccc2)CCCNC1=O [PMX205, hydrocinnamate-[Orn-Pro-dCha-Trp-Arg]] (Hydrocinnamoyl-[Orn]P[dCha]WR; lactam 1-C)

AUC(0-inf) [6]: 3830 ng·h/mL
AUC(0-t) [6]: 3410 ng·h/mL
clearance [6]: 0.18 mL/min
Cmax ([6]; Cmax): 11900 ng/mL
Vd ([6]; Vss_obs): 0.00328 L
Vd ([6]; Vz_obs): 0.00826 L
SMILES: CC(=O)N[C@@H](Cc1ccccc1)C(=O)N[C@H]1CCCNC(=O)[C@H](CCCNC(=N)N)NC(=O)[C@H](Cc2c[nH]c3ccccc23)NC(=O)[C@@H](CC2CCCCC2)NC(=O)[C@@H]2CCCN2C1=O [PMX53, Ac-Phe-[Orn-Pro-dCha-Trp-Arg]]

— article PMC5970165, “Development and validation of a LC-MS/MS assay for pharmacokinetic studies of complement C5a receptor antagonists PMX53 and PMX205 in mice” (Scientific Reports, 2018)
